Laboratory results published in US20090130229A1, “Antitumor uses of compound” (Cell Therapeutics, Inc., priority 2002, published 2009).
“Also recorded” adds a separate entry of the source.

Tests used:
[1] = biological target: T1, Met (Homo sapiens, UniProt P08581); assay: Met autophosphorylation and expression in TPC-1 cells (IP/Western blotting); format: cell-based
T1 construct: endogenous in cells; host or cells: TPC-1 (human papillary thyroid carcinoma)
Description: FIG. 4. Inhibition of Met autophosphorylation and expression in human papillary thyroid carcinoma cells (TPC-1) treated with Cpd1. A): TPC-1 cells were exposed to solvent (−) or the indicated concentrations of Cpd 1 for 72 h. Equal amounts of protein were used for immunoprecipitation (IP) with anti-Met antibody or for the preparation of whole cell lysates (WCL). Immunoprecipitated proteins and WCLs were separated by SDS-PAGE, transferred to nitrocellulose membranes, and subjected to Western blotting with anti-pTyr or anti-Met antibodies. B): Cells were treated as in A. Cell extracts were immunoprecipitated with anti-pTyr antibody and probed with anti-Met antibody. C): Cells were serum-starved for 24 h and exposed to solvent or Cpd1 (60 μM) during the last 18 h. Then they were left untreated (−) or stimulated with 20 ng/ml HGF (+), for 10 min. Cell lysates were immunoprecipitated with anti-Met and probed with anti-pTyr or anti-Met antibody. Drug treatment abolished the constitutive or HGF-induced Met tyrosine phosphorylation and induced a reduction of Met expression.
The following human medullary thyroid carcinoma (MTC) cell lines were used in this study. The TT cell line derived from a MEN2A-associated MTC characterized by expression of the RET oncogene carrying the mutation C634W. The MZ-CRC-1 cell line derived from MEN2B-associated MTC characterized by expression of the RET oncogene carrying the mutation M918T. TT cells were cultivated in Ham's F12 medium (BioWhittaker, Verviers, Belgium) supplemented with 15% fetal calf serum (FCS) (Life Technologies, Inc., Gaithersburg, Md.) whereas MZ-CRC-1 cells were grown in Dulbecco's modified Eagle's medium (DMEM) (BioWhittaker) supplemented with 10% FCS. The human papillary thyroid carcinoma cell line TPC-1 which was used as a model of Met overexpression, was routinely cultivated in DMEM with 10% FCS. […]
For immunoprecipitation experiments, cells were treated with Cpd1 or solvent for the indicated times. […] Protein concentration was determined by the BCA reagent (Pierce). […]

[2] = system: NIH3T3 cells transformed with the RET/PTC1 oncogene; details: cited from earlier work
[3] = system: NIH3T3^MEN2A(C634R) cells; assay: Antiproliferative assay (Coulter Counter), NIH3T3 MEN2A(C634R) versus parental NIH3T3; format: cell-based, murine; details: 72 h, dose-response curves
Description: FIG. 1. Effects of Cpd 1 on NIH3T3^MEN2A(C634R) transfectants expressing exogenous RET/MEN2A(C634R). […] Cells were exposed to 6 μM Cpd1 for 24 h and then photographed under a phase-contrast microscope (original magnification ×100). B) Antiproliferative effect. NIH3T3^MEN2A(C634R) cells and the parental NIH3T3 cells were treated with increasing concentrations of the drug for 72 h and then counted with a Coulter Counter. […] C) Inhibition of Ret/MEN2A(C634R) autophosphorylation and expression. Cells were treated with solvent (−) or 10 μM Cpd1 (+), for the indicated times. Whole cell-lysates were prepared and subjected to SDS-PAGE and Western blotting with anti-pTyr antibody. After stripping, the filter was reblotted with anti-Ret antibody. Arrows indicate the partial and fully glycosilated forms of the Ret/MEN2A receptor.
Cells were trypsinized after 3 days (NIH3T3 and NIH3T3 M12A cells) or 7 days (MTC cells) of treatment with Cpd1 and counted by a Coulter Counter (Coulter Electronics, Luton U.K.). The concentrations able to inhibit cell proliferation by 50% (IC50) were calculated from the dose-response curves. Each experiment was performed in duplicate

[4] = biological target: T2, Ret/MEN2B(M918T) (Homo sapiens, UniProt P07949, M918T); assay: Ret autophosphorylation and expression in MZ-CRC-1 cells (Western blotting); format: cell-based; details: 24 h
T2 construct: endogenous in cells; host or cells: MZ-CRC-1 (human medullary thyroid carcinoma)
Description: FIG. 2. Effects of Cpd1 on human MTC cell lines harboring MEN2-associated RET mutants. A) Inhibition of Ret autophosphorylation. TT and MZ-CRC-1 cells, expressing respectively RET/MEN2A(C634W) and RET/MEN2B(M918T), were treated with the indicated concentrations of Cpd1, for 24 h. Control cells (C) received the solvent. Whole cell extracts were processed for Western blotting and probed with anti-pTyr and anti-Ret antibodies. […] B) Antiproliferative effect. TT and MZ-CRC-1 cells were treated with increasing concentrations of Cpd 1 for 7 days and then counted with a Coulter Counter.
The following human medullary thyroid carcinoma (MTC) cell lines were used in this study. The TT cell line derived from a MEN2A-associated MTC characterized by expression of the RET oncogene carrying the mutation C634W. […]
For whole-cell extract preparation, cells were lysed in sodium dodecyl sulfate (SDS) sample buffer (62.5 mM Tris-HCl (pH 6.8), 2% SDS) with 1 mM PMSF, 10 μg/ml pepstatin, 12.5 μg/ml leupeptin, 100 KIU aprotinin, 1 mM sodium orthovanadate, 1 mM sodium molybdate. Protein concentration was determined in appropriately diluted aliquots by the bicinchionic acid (BCA) method (Pierce, Rockford, Ill.), then samples were adjusted to a final concentration of 10% glycerol, 5% β-mercaptoethanol, 0.001% bromophenol blue. […]

T1 sequence (P08581 25-1390): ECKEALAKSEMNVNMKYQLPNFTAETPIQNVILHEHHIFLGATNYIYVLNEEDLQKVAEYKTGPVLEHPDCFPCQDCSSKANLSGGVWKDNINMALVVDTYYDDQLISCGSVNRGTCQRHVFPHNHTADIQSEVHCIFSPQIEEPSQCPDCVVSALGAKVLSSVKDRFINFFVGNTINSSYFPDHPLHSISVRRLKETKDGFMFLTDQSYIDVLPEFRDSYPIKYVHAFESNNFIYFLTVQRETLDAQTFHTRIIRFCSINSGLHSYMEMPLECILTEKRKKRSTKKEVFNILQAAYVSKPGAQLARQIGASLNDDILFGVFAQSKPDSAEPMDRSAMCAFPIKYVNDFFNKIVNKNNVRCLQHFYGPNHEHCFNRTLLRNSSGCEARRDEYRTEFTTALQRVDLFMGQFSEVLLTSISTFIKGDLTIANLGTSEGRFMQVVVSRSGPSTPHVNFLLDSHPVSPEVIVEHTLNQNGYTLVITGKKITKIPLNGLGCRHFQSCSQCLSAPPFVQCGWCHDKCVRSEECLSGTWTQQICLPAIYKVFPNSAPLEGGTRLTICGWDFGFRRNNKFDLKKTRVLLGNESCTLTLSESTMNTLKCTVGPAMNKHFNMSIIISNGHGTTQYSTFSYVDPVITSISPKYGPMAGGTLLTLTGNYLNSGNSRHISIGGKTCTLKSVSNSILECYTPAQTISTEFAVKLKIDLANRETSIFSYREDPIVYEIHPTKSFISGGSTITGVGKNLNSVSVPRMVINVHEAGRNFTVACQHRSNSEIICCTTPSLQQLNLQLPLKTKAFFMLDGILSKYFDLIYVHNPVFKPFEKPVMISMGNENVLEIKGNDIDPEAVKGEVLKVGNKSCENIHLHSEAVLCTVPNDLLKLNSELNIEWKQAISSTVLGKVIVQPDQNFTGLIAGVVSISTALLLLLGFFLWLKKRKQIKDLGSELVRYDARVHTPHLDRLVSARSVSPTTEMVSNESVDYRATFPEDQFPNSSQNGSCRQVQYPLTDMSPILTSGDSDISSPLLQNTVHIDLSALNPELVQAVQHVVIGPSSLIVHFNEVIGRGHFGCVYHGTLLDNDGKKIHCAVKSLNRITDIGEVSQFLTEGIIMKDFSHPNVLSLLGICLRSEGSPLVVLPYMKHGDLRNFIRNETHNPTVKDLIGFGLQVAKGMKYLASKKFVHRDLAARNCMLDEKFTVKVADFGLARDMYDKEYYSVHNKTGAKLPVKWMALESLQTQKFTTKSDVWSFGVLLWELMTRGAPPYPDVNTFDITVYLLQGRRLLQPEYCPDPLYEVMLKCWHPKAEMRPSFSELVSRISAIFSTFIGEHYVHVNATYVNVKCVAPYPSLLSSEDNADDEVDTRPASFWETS
T2 sequence (P07949 29-1114 M918T): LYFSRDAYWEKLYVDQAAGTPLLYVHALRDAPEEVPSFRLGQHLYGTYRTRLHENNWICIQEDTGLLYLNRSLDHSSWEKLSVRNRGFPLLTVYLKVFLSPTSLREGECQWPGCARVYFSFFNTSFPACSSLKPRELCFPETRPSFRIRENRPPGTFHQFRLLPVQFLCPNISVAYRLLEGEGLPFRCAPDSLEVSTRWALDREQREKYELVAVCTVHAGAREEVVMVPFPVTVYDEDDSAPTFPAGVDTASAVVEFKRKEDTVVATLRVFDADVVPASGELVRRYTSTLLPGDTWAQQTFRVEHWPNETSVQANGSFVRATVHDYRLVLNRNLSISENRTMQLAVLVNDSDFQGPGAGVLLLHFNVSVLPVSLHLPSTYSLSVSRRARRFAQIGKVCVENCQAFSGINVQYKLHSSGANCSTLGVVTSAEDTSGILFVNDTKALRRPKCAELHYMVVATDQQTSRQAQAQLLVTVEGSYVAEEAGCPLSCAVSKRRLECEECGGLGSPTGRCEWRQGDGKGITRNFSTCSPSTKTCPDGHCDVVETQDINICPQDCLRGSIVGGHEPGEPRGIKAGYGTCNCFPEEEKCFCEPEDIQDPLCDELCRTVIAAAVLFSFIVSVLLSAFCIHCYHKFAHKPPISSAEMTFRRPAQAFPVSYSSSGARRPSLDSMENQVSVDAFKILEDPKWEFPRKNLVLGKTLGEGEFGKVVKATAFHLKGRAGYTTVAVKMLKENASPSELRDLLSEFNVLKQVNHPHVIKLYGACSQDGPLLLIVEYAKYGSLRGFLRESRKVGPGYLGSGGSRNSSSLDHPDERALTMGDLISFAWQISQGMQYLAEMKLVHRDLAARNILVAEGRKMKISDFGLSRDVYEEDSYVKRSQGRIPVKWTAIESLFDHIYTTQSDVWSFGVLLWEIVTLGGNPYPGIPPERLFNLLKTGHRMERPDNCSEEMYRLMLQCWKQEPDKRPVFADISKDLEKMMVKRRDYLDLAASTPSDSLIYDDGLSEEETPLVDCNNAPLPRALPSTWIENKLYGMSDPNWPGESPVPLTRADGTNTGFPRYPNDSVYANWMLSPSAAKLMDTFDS

COc1cc2c(cc1OC)/C(=C\c1ccc(O)cc1)C(=O)N2 [Cpd 1, (E)-1,3-dihydro-5,6-dimethoxy-3-[(4-hydroxyphenyl)methylene]-2H-indol-2-one]
Met expression ([1]; TPC-1 cells): reduction
HGF-induced Met tyrosine phosphorylation ([1]; TPC-1 cells serum-starved, 60 μM for 18 h, 20 ng/ml HGF 10 min): abolished
Constitutive Met tyrosine phosphorylation (autophosphorylation) ([1]; TPC-1 cells, 72 h): dose-dependent inhibition; also recorded: abolished
Reverting the morphologic phenotype [2]: particularly effective
Antiproliferative effect, sensitivity relative to parental NIH3T3 cells [3]: higher sensitivity
Tyrosine phosphorylation of Ret receptor [4]: dose-dependent inhibition
Ret receptor expression ([4]; highest concentrations): reduced expression
